# Measured values published in PubChem BioAssay AID248 (DTP/NCI, 2004).
# Where “and” joins values, the source holds several entries; their conditions need not be identical. Equal values may be shown once. Inconclusive results and toxic doses are left out.
# System: L1210 leukemia ip in BDF1 mice, survival T/C
# Assay: NCI In Vivo Anticancer Drug Screen. Data for tumor model L1210 Leukemia (intraperitoneal) in B6D2F1 (BDF1) mice
# Conditions: endpoint: mean survival time, higher = longer survival
# Outline: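 Tumor was transplanted into mice, which were then dosed with test compound or vehicle alone. Survival was recorded for each group, and the treated figure was expressed relative to the control figure.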
# [1] = dose: 100.0 mg/kg/injection, schedule: Q04DX003 (ip), vehicle: Klucel (hydroxypropylcellulose) (HPC)
# [2] = dose: 200.0 mg/kg/injection, schedule: Q04DX003 (ip), vehicle: Klucel (hydroxypropylcellulose) (HPC)
# [3] = dose: 100.0 mg/kg/injection, schedule: Q01DX009 (ip), vehicle: carboxymethylcellulose (CMC)
# [4] = dose: 200.0 mg/kg/injection, schedule: Q01DX009 (ip), vehicle: carboxymethylcellulose (CMC)
# [5] = dose: 100.0 mg/kg/injection, schedule: Q01DX001 (ip), vehicle: carboxymethylcellulose (CMC)
# [6] = dose: 200.0 mg/kg/injection, schedule: Q01DX001 (ip), vehicle: carboxymethylcellulose (CMC)
# [7] = dose: 400.0 mg/kg/injection, schedule: Q01DX001 (ip), vehicle: carboxymethylcellulose (CMC)
# [8] = dose: 50.0 mg/kg/injection, schedule: Q01DX009 (ip), vehicle: saline
# [9] = dose: 100.0 mg/kg/injection, schedule: Q01DX009 (ip), vehicle: saline
# [10] = dose: 100.0 mg/kg/injection, schedule: Q04DX003 (ip), vehicle: saline
# [11] = dose: 200.0 mg/kg/injection, schedule: Q01DX009 (ip), vehicle: saline
# [12] = dose: 200.0 mg/kg/injection, schedule: Q04DX003 (ip), vehicle: saline
# [13] = dose: 100.0 mg/kg/injection, schedule: Q01DX001 (ip), vehicle: saline
# [14] = dose: 200.0 mg/kg/injection, schedule: Q01DX001 (ip), vehicle: saline
# [15] = dose: 400.0 mg/kg/injection, schedule: Q01DX001 (ip), vehicle: saline
# [16] = dose: 100.0 mg/kg/injection, schedule: Q01DX001 (ip), vehicle: saline with Tween-80
# [17] = dose: 200.0 mg/kg/injection, schedule: Q01DX001 (ip), vehicle: saline with Tween-80
smiles,measurement,setting,value
CC1CCC(O)(C(C)(C(=O)O)c2ccccc2)CC1 (configuration not stated),T/C,"dose: 55.0 mg/kg/injection, schedule: Q01DX Z (ip), vehicle: methylcellulose (MC)",96 % of control
same,T/C,"dose: 83.0 mg/kg/injection, schedule: Q01DX Z (ip), vehicle: methylcellulose (MC)",105 % of control
same,T/C,"dose: 125.0 mg/kg/injection, schedule: Q01DX Z (ip), vehicle: methylcellulose (MC)",93 % of control
Cc1ncc2c(=O)n(-c3ccc(Br)cc3)[nH]c2n1,T/C,"dose: 100.0 mg/kg/injection, schedule: Q04DX003 (ip), vehicle: gum acacia",96 % of control
same,T/C,"dose: 200.0 mg/kg/injection, schedule: Q04DX003 (ip), vehicle: gum acacia",97 % of control
same,T/C,"dose: 400.0 mg/kg/injection, schedule: Q04DX003 (ip), vehicle: gum acacia",92 % of control
Oc1ccc(Br)cc1-c1nc2cc(Cl)c(Cl)cc2nc1-c1cc(Br)ccc1O,T/C,"dose: 100.0 mg/kg/injection, schedule: Q01DX009 (ip), vehicle: Klucel (hydroxypropylcellulose) (HPC)",94 % of control
same,T/C,[1],107 % of control
same,T/C,"dose: 200.0 mg/kg/injection, schedule: Q01DX009 (ip), vehicle: Klucel (hydroxypropylcellulose) (HPC)",94 % of control
same,T/C,[2],101 % of control
same,T/C,"dose: 400.0 mg/kg/injection, schedule: Q01DX009 (ip), vehicle: Klucel (hydroxypropylcellulose) (HPC)",96 % of control
same,T/C,"dose: 400.0 mg/kg/injection, schedule: Q04DX003 (ip), vehicle: Klucel (hydroxypropylcellulose) (HPC)",95 % of control
CCCCC(=O)NS(=O)(=O)c1ccccc1,T/C,"dose: 100.0 mg/kg/injection, schedule: Q01DX009 (ip), vehicle: saline with Tween-80",92 % of control
same,T/C,"dose: 100.0 mg/kg/injection, schedule: Q04DX003 (ip), vehicle: saline with Tween-80",94 % of control
same,T/C,"dose: 200.0 mg/kg/injection, schedule: Q01DX009 (ip), vehicle: saline with Tween-80",105 % of control
same,T/C,"dose: 200.0 mg/kg/injection, schedule: Q04DX003 (ip), vehicle: saline with Tween-80",101 % of control
same,T/C,"dose: 400.0 mg/kg/injection, schedule: Q01DX009 (ip), vehicle: saline with Tween-80",107 % of control
same,T/C,"dose: 400.0 mg/kg/injection, schedule: Q04DX003 (ip), vehicle: saline with Tween-80",94 % of control
C#CC1(NC(=S)Nc2ccc(C)cc2)CCCCC1,T/C,[3],100 % of control and 92 % of control
same,T/C,[4],95 % of control and 100 % of control
same,T/C,"dose: 400.0 mg/kg/injection, schedule: Q01DX009 (ip), vehicle: carboxymethylcellulose (CMC)",106 % of control and 113 % of control
OC(c1ccccc1)(c1ccccc1)c1ccncc1,T/C,"dose: 50.0 mg/kg/injection, schedule: Q01DX009 (ip), vehicle: saline with Tween-80",96 % of control
Cc1ccc2c(c1)OC(=O)CC2C (configuration not stated),T/C,[5],100 % of control
same,T/C,[6],96 % of control
same,T/C,[7],96 % of control
[N-]=[N+]=Nc1ccc(C(=O)O)cc1,T/C,"dose: 100.0 mg/kg/injection, schedule: Q01DX001 (ip), vehicle: Klucel (hydroxypropylcellulose) (HPC)",100 % of control
same,T/C,"dose: 200.0 mg/kg/injection, schedule: Q01DX001 (ip), vehicle: Klucel (hydroxypropylcellulose) (HPC)",100 % of control
same,T/C,"dose: 400.0 mg/kg/injection, schedule: Q01DX001 (ip), vehicle: Klucel (hydroxypropylcellulose) (HPC)",103 % of control
CCC[N+](C)(C)CC,T/C,"dose: 37.5 mg/kg/injection, schedule: Q01DX001 (ip), vehicle: saline",104 % of control
same,T/C,"dose: 75.0 mg/kg/injection, schedule: Q01DX001 (ip), vehicle: saline",95 % of control
O=C1OC(C(O)C(O)CO)C(O)C1O (configuration not stated),T/C,[8],92 % of control
same,T/C,[9],92 % of control
same,T/C,[10],92 % of control
same,T/C,[11],97 % of control
same,T/C,[12],94 % of control
same,T/C,"dose: 400.0 mg/kg/injection, schedule: Q04DX003 (ip), vehicle: saline",100 % of control
O=c1[nH][nH]c(=O)c2c1nc(SCc1ccccc1Br)n2Cc1ccccc1,T/C,[5],95 % of control
same,T/C,[6],97 % of control
same,T/C,[7],97 % of control
COC(c1ccccc1)C(OC)c1ccccc1 (configuration not stated),T/C,"dose: 50.0 mg/kg/injection, schedule: Q04DX003 (ip), vehicle: Klucel (hydroxypropylcellulose) (HPC)",96 % of control
same,T/C,[13],109 % of control
same,T/C,[1],98 % of control
same,T/C,[14],94 % of control
same,T/C,[2],98 % of control
same,T/C,[15],103 % of control
O=S(=O)(Cc1ccccc1)/C(=C\c1ccccc1)c1ccccc1,T/C,"dose: 50.0 mg/kg/injection, schedule: Q01DX001 (ip), vehicle: saline",105 % of control
same,T/C,[13],105 % of control
same,T/C,[14],105 % of control
same,T/C,[15],103 % of control
O=C1CSc2ccccc2N1CCN1C(=O)CSc2ccccc21,T/C,"dose: 50.0 mg/kg/injection, schedule: Q04DX002 (ip), vehicle: saline with Tween-80",93 % of control
same,T/C,"dose: 100.0 mg/kg/injection, schedule: Q04DX002 (ip), vehicle: saline with Tween-80",90 % of control
same,T/C,"dose: 200.0 mg/kg/injection, schedule: Q04DX002 (ip), vehicle: saline with Tween-80",101 % of control
same,T/C,"dose: 400.0 mg/kg/injection, schedule: Q04DX002 (ip), vehicle: saline with Tween-80",86 % of control
CN(C(=O)c1ccncc1)c1ccccc1,T/C,"dose: 50.0 mg/kg/injection, schedule: Q01DX009 (ip), vehicle: carboxymethylcellulose (CMC)",93 % of control and 98 % of control
same,T/C,"dose: 50.0 mg/kg/injection, schedule: Q04DX002 (ip), vehicle: carboxymethylcellulose (CMC)",95 % of control and 100 % of control
same,T/C,"dose: 50.0 mg/kg/injection, schedule: Q04DX003 (ip), vehicle: carboxymethylcellulose (CMC)",95 % of control
same,T/C,[3],98 % of control and 90 % of control
same,T/C,"dose: 100.0 mg/kg/injection, schedule: Q04DX002 (ip), vehicle: carboxymethylcellulose (CMC)",100 % of control (2×) and 106 % of control
same,T/C,"dose: 100.0 mg/kg/injection, schedule: Q04DX003 (ip), vehicle: carboxymethylcellulose (CMC)",97 % of control
same,T/C,[4],90 % of control and 91 % of control
same,T/C,"dose: 200.0 mg/kg/injection, schedule: Q04DX002 (ip), vehicle: carboxymethylcellulose (CMC)",97 % of control (2×) and 98 % of control
same,T/C,"dose: 200.0 mg/kg/injection, schedule: Q04DX003 (ip), vehicle: carboxymethylcellulose (CMC)",98 % of control
same,T/C,"dose: 400.0 mg/kg/injection, schedule: Q04DX002 (ip), vehicle: carboxymethylcellulose (CMC)",93 % of control
CCCCS(=O)(=O)Nc1ccc(Nc2c3ccccc3nc3ccccc23)c(OC)c1,T/C,"dose: 12.5 mg/kg/injection, schedule: Q01DX009 (ip), vehicle: saline",150 % of control
same,T/C,"dose: 25.0 mg/kg/injection, schedule: Q01DX009 (ip), vehicle: saline",153 % of control
same,T/C,"dose: 50.0 mg/kg/injection, schedule: Q01DX009 (ip), vehicle: Klucel (hydroxypropylcellulose) (HPC)",154 % of control
CN(C)C(=O)Oc1c(Cl)c(Cl)c(OC(=O)N(C)C)c(Cl)c1Cl,T/C,"dose: 100.0 mg/kg/injection, schedule: Q04DX002 (ip), vehicle: Klucel (hydroxypropylcellulose) (HPC)",94 % of control
same,T/C,"dose: 200.0 mg/kg/injection, schedule: Q04DX002 (ip), vehicle: Klucel (hydroxypropylcellulose) (HPC)",105 % of control
same,T/C,"dose: 400.0 mg/kg/injection, schedule: Q04DX002 (ip), vehicle: Klucel (hydroxypropylcellulose) (HPC)",90 % of control
O=C(COc1ccccc1)NCCNC(=S)Nc1ccccc1,T/C,[16],102 % of control
same,T/C,[17],94 % of control
same,T/C,"dose: 400.0 mg/kg/injection, schedule: Q01DX001 (ip), vehicle: saline with Tween-80",112 % of control
CCC[N+]12CC=C(CO)C1C(O)CC2 (configuration not stated),T/C,[13],103 % of control
same,T/C,[14],100 % of control
same,T/C,[15],110 % of control
O=c1[nH]c2nc(Cl)c(Cl)nc2[nH]1,T/C,[8],98 % of control
same,T/C,[9],95 % of control and 96 % of control
same,T/C,[10],94 % of control
same,T/C,[11],108 % of control and 116 % of control
same,T/C,[12],105 % of control
same,T/C,"dose: 300.0 mg/kg/injection, schedule: Q01DX009 (ip), vehicle: saline",92 % of control
same,T/C,"dose: 400.0 mg/kg/injection, schedule: Q01DX009 (ip), vehicle: saline",86 % of control
CCCCCCCCCCCCCCCCCOc1ccc2ccccc2c1,T/C,[16],87 % of control
same,T/C,[17],89 % of control
CC1N=C1c1ccccc1 (configuration not stated),T/C,"dose: 100.0 mg/kg/injection, schedule: Q04DX002 (ip), vehicle: saline",102 % of control
same,T/C,"dose: 200.0 mg/kg/injection, schedule: Q04DX002 (ip), vehicle: saline",115 % of control
same,T/C,"dose: 400.0 mg/kg/injection, schedule: Q04DX002 (ip), vehicle: saline",105 % of control
